Assay results published in PMC5218480 (PLoS ONE, 2017).

Test system: MV-4-11 cells
Assay: Gene expression microarray analysis (Affymetrix PrimeView) and GSEA
Format: cell-based, human
Design: RFU PODN (11730768_x_at) / Fold change /veh PODN (11730768_x_at) / RFU LINC00158 (11744669_a_at) / Fold change /veh LINC00158 (11744669_a_at) / RFU DUSP10 (11751237_a_at) / Fold change /veh DUSP10 (11751237_a_at) / RFU ID3 (11757404_x_at) / Fold change /veh ID3 (11757404_x_at) / RFU PLEKHG5 (11737974_s_at) / Fold change /veh PLEKHG5 (11737974_s_at) / RFU LRRC4B (11730491_at) / Fold change /veh LRRC4B (11730491_at) / RFU GIMAP4 (11747438_a_at) / Fold change /veh GIMAP4 (11747438_a_at) / RFU KRT8 (11758183_x_at) / Fold change /veh KRT8 (11758183_x_at) / RFU CNN1 (11734310_a_at) / Fold change /veh CNN1 (11734310_a_at) / RFU VPS37D (11726825_at) / Fold change /veh VPS37D (11726825_at) / RFU C10orf10 (11716522_x_at) / Fold change /veh C10orf10 (11716522_x_at) / RFU KIR2DL2 /// KIR2DL4 /// KIR2DL5A /// KIR2DL5B /// KIR2DS1 /// KIR2DS2 /// KIR2DS3 /// KIR2DS4 /// KIR3DL3 /// KIR3DL3 /// KIR3DS1 (11738374_at) / Fold change /veh KIR2DL2 /// KIR2DL4 /// KIR2DL5A /// KIR2DL5B /// KIR2DS1 /// KIR2DS2 /// KIR2DS3 /// KIR2DS4 /// KIR3DL3 /// KIR3DL3 /// KIR3DS1 (11738374_at) / RFU C1QL1 (11718748_at) / Fold change /veh C1QL1 (11718748_at) / RFU TMPRSS4 (11747572_a_at) / Fold change /veh TMPRSS4 (11747572_a_at) / RFU HAMP (11756126_x_at) / Fold change /veh HAMP (11756126_x_at) / RFU RNFT2 (11725882_a_at) / Fold change /veh RNFT2 (11725882_a_at) / RFU NR4A2 (11747474_a_at) / Fold change /veh NR4A2 (11747474_a_at) / RFU ABCC12 (11746883_a_at) / Fold change /veh ABCC12 (11746883_a_at) / RFU TMEM136 (11760407_x_at) / Fold change /veh TMEM136 (11760407_x_at) / RFU CLDN22 /// WWC2 (11732394_at) / Fold change /veh CLDN22 /// WWC2 (11732394_at) / RFU HLA-DPB1 (11760878_x_at) / Fold change /veh HLA-DPB1 (11760878_x_at) / RFU SPINT1 (11716480_a_at) / Fold change /veh SPINT1 (11716480_a_at) / RFU GAP43 (11754022_s_at) / Fold change /veh GAP43 (11754022_s_at) / RFU A4GNT (11735810_at) / Fold change /veh A4GNT (11735810_at) / RFU PRB3 (11715151_x_at) / Fold change /veh PRB3 (11715151_x_at) / RFU TUBB4B (11761932_at) / Fold change /veh TUBB4B (11761932_at) / RFU CAPN14 (11732068_a_at) / Fold change /veh CAPN14 (11732068_a_at) / RFU TMCC2 (11721928_a_at) / Fold change /veh TMCC2 (11721928_a_at) / RFU IRGQ (11745062_a_at) / Fold change /veh IRGQ (11745062_a_at) / RFU FAM174B (11720279_a_at) / Fold change /veh FAM174B (11720279_a_at) / RFU TMPRSS4 (11748680_a_at) / Fold change /veh TMPRSS4 (11748680_a_at) / RFU FAM212B (11763350_a_at) / Fold change /veh FAM212B (11763350_a_at) / RFU PLEKHG5 (11743358_a_at) / Fold change /veh PLEKHG5 (11743358_a_at) / RFU ZSCAN30 (11745921_a_at) / Fold change /veh ZSCAN30 (11745921_a_at) / RFU CMKLR1 (11741424_a_at) / Fold change /veh CMKLR1 (11741424_a_at) / RFU LOC101060620 /// MAPK8IP1 (11723275_at) / Fold change /veh LOC101060620 /// MAPK8IP1 (11723275_at) / RFU SPTSSB (11747773_x_at) / Fold change /veh SPTSSB (11747773_x_at) / RFU PRSS12 (11739890_at) / Fold change /veh PRSS12 (11739890_at) / RFU BIN1 (11741810_x_at) / Fold change /veh BIN1 (11741810_x_at) / RFU WNT11 (11732464_a_at) / Fold change /veh WNT11 (11732464_a_at) / RFU C10orf10 (11716521_a_at) / Fold change /veh C10orf10 (11716521_a_at) / RFU C5orf56 (11738089_at) / Fold change /veh C5orf56 (11738089_at) / RFU CYB561 (11721691_x_at) / Fold change /veh CYB561 (11721691_x_at) / RFU ANKRD19P (11752326_a_at) / Fold change /veh ANKRD19P (11752326_a_at) / RFU OR2T12 /// OR2T33 /// OR2T8 (11738714_s_at) / Fold change /veh OR2T12 /// OR2T33 /// OR2T8 (11738714_s_at) / RFU VCAN (11748164_a_at) / Fold change /veh VCAN (11748164_a_at) / RFU JSRP1 (11732532_at) / Fold change /veh JSRP1 (11732532_at) / RFU KRTAP10-11 (11738290_x_at) / Fold change /veh KRTAP10-11 (11738290_x_at) / RFU MYO3A (11730013_a_at) / Fold change /veh MYO3A (11730013_a_at) / RFU EBF3 (11725865_a_at) / Fold change /veh EBF3 (11725865_a_at) / RFU CAMK2N1 (11719241_x_at) / Fold change /veh CAMK2N1 (11719241_x_at) / RFU C5orf56 (11738088_a_at) / Fold change /veh C5orf56 (11738088_a_at) / RFU OLFML3 (11715873_a_at) / Fold change /veh OLFML3 (11715873_a_at) / RFU LOC100653217 /// NTM (11731650_a_at) / Fold change /veh LOC100653217 /// NTM (11731650_a_at) / RFU MAPK11 (11762145_a_at) / Fold change /veh MAPK11 (11762145_a_at) / RFU FIZ1 (11724087_x_at) / Fold change /veh FIZ1 (11724087_x_at) / RFU OASL (11726364_x_at) / Fold change /veh OASL (11726364_x_at) / RFU SOX15 (11748057_x_at) / Fold change /veh SOX15 (11748057_x_at) / RFU CD79A (11719716_a_at) / Fold change /veh CD79A (11719716_a_at) / RFU HIST1H1D (11736915_at) / Fold change /veh HIST1H1D (11736915_at) / RFU CASKIN2 (11723855_a_at) / Fold change /veh CASKIN2 (11723855_a_at) / RFU LOC730098 (11760151_x_at) / Fold change /veh LOC730098 (11760151_x_at) / RFU OR4N2 (11742367_at) / Fold change /veh OR4N2 (11742367_at) / RFU PRRT2 (11749266_a_at) / Fold change /veh PRRT2 (11749266_a_at) / RFU SNX32 (11753110_a_at) / Fold change /veh SNX32 (11753110_a_at) / RFU CDHR5 (11726645_a_at) / Fold change /veh CDHR5 (11726645_a_at) / RFU RCAN1 (11760418_a_at) / Fold change /veh RCAN1 (11760418_a_at) / RFU FAM167A (11723789_a_at) / Fold change /veh FAM167A (11723789_a_at) / RFU FAM26E (11764081_at) / Fold change /veh FAM26E (11764081_at) / RFU ISYNA1 (11749810_s_at) / Fold change /veh ISYNA1 (11749810_s_at) / RFU ACY1 (11761880_at) / Fold change /veh ACY1 (11761880_at) / RFU 11764098_at / Fold change /veh 11764098_at / RFU SAMD14 (11745864_x_at) / Fold change /veh SAMD14 (11745864_x_at) / RFU NPB (11741838_a_at) / Fold change /veh NPB (11741838_a_at) / RFU TMPRSS6 (11731388_a_at) / Fold change /veh TMPRSS6 (11731388_a_at) / RFU KRTAP10-2 (11738614_at) / Fold change /veh KRTAP10-2 (11738614_at) / RFU ARHGAP8 /// PRR5-ARHGAP8 (11727945_x_at) / Fold change /veh ARHGAP8 /// PRR5-ARHGAP8 (11727945_x_at) / RFU KRTAP5-7 /// NADSYN1 (11734609_at) / Fold change /veh KRTAP5-7 /// NADSYN1 (11734609_at) / RFU RASL12 (11751679_a_at) / Fold change /veh RASL12 (11751679_a_at) / RFU CDKN2B (11736163_a_at) / Fold change /veh CDKN2B (11736163_a_at) / RFU PRF1 (11729649_at) / Fold change /veh PRF1 (11729649_at) / RFU, ZNF638 /// ZNF638-IT1 / Fold change vs veh, ZNF638 /// ZNF638-IT1 / RFU, PANK3 / Fold change vs veh, PANK3 / RFU, SH3YL1 / Fold change vs veh, SH3YL1 / RFU, ZEB2 / Fold change vs veh, ZEB2 / RFU, NRIP1 / Fold change vs veh, NRIP1 / RFU, PTTG1IP / Fold change vs veh, PTTG1IP / RFU, CAPN2 / Fold change vs veh, CAPN2 / RFU, MED14 / Fold change vs veh, MED14 / RFU, SNORA58 / Fold change vs veh, SNORA58 / RFU, C1orf63 / Fold change vs veh, C1orf63 / RFU, LRRFIP1 / Fold change vs veh, LRRFIP1 / RFU, NDUFAF7 / Fold change vs veh, NDUFAF7 / RFU, SLC12A2 / Fold change vs veh, SLC12A2 / RFU, IBTK / Fold change vs veh, IBTK / RFU, ESF1 / Fold change vs veh, ESF1 / Fold change vs veh, TMEM50B / RFU, TAOK1 / Fold change vs veh, TAOK1 / RFU, ACBD3 / Fold change vs veh, ACBD3 / RFU, TMA16 / Fold change vs veh, TMA16 / RFU, RWDD3 / Fold change vs veh, RWDD3 / RFU, BCAT1 / Fold change vs veh, BCAT1 / RFU, EDEM3 / Fold change vs veh, EDEM3 / RFU, TMEM33 / Fold change vs veh, TMEM33 / RFU, WDR75 / Fold change vs veh, WDR75 / RFU, AHCTF1 / Fold change vs veh, AHCTF1 / RFU, TFRC / Fold change vs veh, TFRC / RFU, ZDHHC17 / Fold change vs veh, ZDHHC17 / RFU, NOM1 / Fold change vs veh, NOM1 / RFU, ARL8B / Fold change vs veh, ARL8B / RFU, ZBTB11 / Fold change vs veh, ZBTB11 / RFU, TAMM41 / Fold change vs veh, TAMM41 / RFU, KIAA1704 /// LOC100996395 / Fold change vs veh, KIAA1704 /// LOC100996395 / RFU, ING1 / Fold change vs veh, ING1 / RFU, TRMT61B / Fold change vs veh, TRMT61B / RFU, FUBP3 / Fold change vs veh, FUBP3 / RFU, TP53 / Fold change vs veh, TP53 / RFU, TNKS2 / Fold change vs veh, TNKS2 / RFU, ZFP14 / Fold change vs veh, ZFP14 / RFU, ACTR2 / Fold change vs veh, ACTR2 / RFU, PPP3R1 / Fold change vs veh, PPP3R1 / RFU, PIK3R1 / Fold change vs veh, PIK3R1 / RFU, HNRNPA1 / Fold change vs veh, HNRNPA1 / RFU, RNF170 / Fold change vs veh, RNF170 / RFU, ZNF28 / Fold change vs veh, ZNF28 / RFU, RNGTT / Fold change vs veh, RNGTT / RFU, OGT / Fold change vs veh, OGT / RFU, BRD1 / Fold change vs veh, BRD1 / RFU, MARS / Fold change vs veh, MARS / RFU, ZNF655 / Fold change vs veh, ZNF655 / RFU, FAHD1 / Fold change vs veh, FAHD1 / RFU, BDP1 / Fold change vs veh, BDP1 / RFU, LRRCC1 / Fold change vs veh, LRRCC1 / RFU, ARID1A / Fold change vs veh, ARID1A / RFU, ZNF146 / Fold change vs veh, ZNF146 / RFU, ZNF330 / Fold change vs veh, ZNF330 / RFU, GPN3 / Fold change vs veh, GPN3 / RFU, C9orf123 / Fold change vs veh, C9orf123 / RFU, N4BP2L2 / Fold change vs veh, N4BP2L2 / RFU, ARFIP1 / Fold change vs veh, ARFIP1 / RFU, FAM179B / Fold change vs veh, FAM179B / RFU, BCL10 / Fold change vs veh, BCL10 / RFU, UHRF1BP1L / Fold change vs veh, UHRF1BP1L / RFU, BET1 / Fold change vs veh, BET1 / RFU, CNOT2 / Fold change vs veh, CNOT2 / RFU, ZNF268 / Fold change vs veh, ZNF268 / Fold change vs veh, ZNF507 / RFU, DGCR2 / Fold change vs veh, DGCR2 / RFU, WDSUB1 / Fold change vs veh, WDSUB1 / Fold change vs veh, HSP90B1 /// MIR3652 / RFU, ADSS / Fold change vs veh, ADSS / RFU, GK / Fold change vs veh, GK / RFU, ZNF148 / Fold change vs veh, ZNF148 / RFU, TAF9 / Fold change vs veh, TAF9 / RFU, SLC1A5 / Fold change vs veh, SLC1A5 / RFU, SLMO2 / Fold change vs veh, SLMO2 / RFU, ABCC4 / Fold change vs veh, ABCC4 / RFU, LOC101060439 /// RAP1B / Fold change vs veh, LOC101060439 /// RAP1B / RFU, RFX7 / Fold change vs veh, RFX7 / RFU, GTPBP10 / Fold change vs veh, GTPBP10 / RFU, CNEP1R1 / Fold change vs veh, CNEP1R1 / RFU, BIVM-ERCC5 /// ERCC5 / Fold change vs veh, BIVM-ERCC5 /// ERCC5 / RFU, ILF3 / Fold change vs veh, ILF3 / RFU 11762660_at / Fold change /veh 11762660_at / RFU VCAN (11757783_s_at) / Fold change /veh VCAN (11757783_s_at) / RFU DDX43 (11728927_at) / Fold change /veh DDX43 (11728927_at) / RFU KRT8 (11758188_x_at) / Fold change /veh KRT8 (11758188_x_at) / RFU NKD1 (11759106_at) / Fold change /veh NKD1 (11759106_at) / RFU SRD5A1 (11742802_a_at) / Fold change /veh SRD5A1 (11742802_a_at) / RFU TPSAB1 /// TPSB2 (11721975_s_at) / Fold change /veh TPSAB1 /// TPSB2 (11721975_s_at) / RFU GSTM3 (11746129_a_at) / Fold change /veh GSTM3 (11746129_a_at) / RFU IL23R (11737362_x_at) / Fold change /veh IL23R (11737362_x_at) / RFU TMEM51 (11727254_a_at) / Fold change /veh TMEM51 (11727254_a_at) / RFU PIWIL2 (11732686_x_at) / Fold change /veh PIWIL2 (11732686_x_at) / RFU ORM1 (11744905_x_at) / Fold change /veh ORM1 (11744905_x_at) / RFU CCDC152 (11743942_at) / Fold change /veh CCDC152 (11743942_at) / RFU ECM1 (11717891_a_at) / Fold change /veh ECM1 (11717891_a_at) / RFU IL23R (11748794_a_at) / Fold change /veh IL23R (11748794_a_at) / RFU TNFAIP8L3 (11732012_x_at) / Fold change /veh TNFAIP8L3 (11732012_x_at) / RFU MBOAT4 (11741988_at) / Fold change /veh MBOAT4 (11741988_at) / RFU 11764193_at / Fold change /veh 11764193_at / RFU TMEM53 (11763286_at) / Fold change /veh TMEM53 (11763286_at) / RFU MAGEB2 (11727129_at) / Fold change /veh MAGEB2 (11727129_at) / RFU TMEM200A (11744735_a_at) / Fold change /veh TMEM200A (11744735_a_at) / RFU CCDC152 (11751479_a_at) / Fold change /veh CCDC152 (11751479_a_at) / RFU FAM211A (11726209_a_at) / Fold change /veh FAM211A (11726209_a_at) / RFU RGS16 (11746705_a_at) / Fold change /veh RGS16 (11746705_a_at) / RFU VCAN (11755009_s_at) / Fold change /veh VCAN (11755009_s_at) / RFU RHOB (11743442_s_at) / Fold change /veh RHOB (11743442_s_at) / RFU RGS16 (11720943_a_at) / Fold change /veh RGS16 (11720943_a_at) / RFU RGS16 (11720944_at) / Fold change /veh RGS16 (11720944_at) / RFU, VPS4B / Fold change vs veh, VPS4B / RFU, CREB1 / Fold change vs veh, CREB1 / RFU, DNAJC13 / Fold change vs veh, DNAJC13 / RFU, GNAQ / Fold change vs veh, GNAQ / RFU, CDK5R1 / Fold change vs veh, CDK5R1 / RFU, ZRANB3 / Fold change vs veh, ZRANB3 / RFU, CUL4A / Fold change vs veh, CUL4A / RFU, CCNY / Fold change vs veh, CCNY / RFU, UFL1 / Fold change vs veh, UFL1 / RFU, COG3 / Fold change vs veh, COG3 / RFU, DIAPH2 / Fold change vs veh, DIAPH2 / RFU, SKA2 / Fold change vs veh, SKA2 / RFU, AFF3 / Fold change vs veh, AFF3 / RFU, LMF1 / Fold change vs veh, LMF1 / RFU, IPO11 / Fold change vs veh, IPO11 / RFU, DFFB / Fold change vs veh, DFFB / RFU, FOXP1 / Fold change vs veh, FOXP1 / RFU, CARD8 / Fold change vs veh, CARD8 / RFU, STRN3 / Fold change vs veh, STRN3 / RFU, ADK / Fold change vs veh, ADK / RFU, RASSF2 / Fold change vs veh, RASSF2 / RFU, WIPF1 / Fold change vs veh, WIPF1 / RFU, LARP1B / Fold change vs veh, LARP1B / RFU, RASA1 / Fold change vs veh, RASA1 / RFU, RB1 / Fold change vs veh, RB1 / RFU, PPFIA1 / Fold change vs veh, PPFIA1 / RFU, MAT2A / Fold change vs veh, MAT2A / RFU, CCT5 / Fold change vs veh, CCT5 / RFU, WDR92 / Fold change vs veh, WDR92 / RFU, CUX1 / Fold change vs veh, CUX1 / RFU, TTC7A / Fold change vs veh, TTC7A / RFU, TMEM135 / Fold change vs veh, TMEM135 / RFU, DEPTOR / Fold change vs veh, DEPTOR / RFU, CPM / Fold change vs veh, CPM / RFU, DNAJB6 / Fold change vs veh, DNAJB6 / RFU, CACNA2D3 / Fold change vs veh, CACNA2D3 / RFU, DTX4 / Fold change vs veh, DTX4 / RFU, TFCP2 / Fold change vs veh, TFCP2 / RFU, GMCL1 /// GMCL1P1 / Fold change vs veh, GMCL1 /// GMCL1P1 / RFU, AEBP2 / Fold change vs veh, AEBP2 / RFU, SNHG1 /// SNORD22 /// SNORD25 /// SNORD26 /// SNORD27 /// SNORD28 /// SNORD29 /// SNORD31 / Fold change vs veh, SNHG1 /// SNORD22 /// SNORD25 /// SNORD26 /// SNORD27 /// SNORD28 /// SNORD29 /// SNORD31 / Fold change (Aza/veh), C12orf56 (ProbeSet 11735607_a_at) / Fold change (ACY-1035/veh), C12orf56 (ProbeSet 11735607_a_at) / Fold change (Aza/veh), FGFR1OP (ProbeSet 11751329_s_at) / Fold change (ACY-1035/veh), FGFR1OP (ProbeSet 11751329_s_at) / Fold change (Aza/veh), VPS36 (ProbeSet 11739960_a_at) / Fold change (ACY-1035/veh), VPS36 (ProbeSet 11739960_a_at) / RFU SYPL1 (11715823_x_at) / Fold change /veh SYPL1 (11715823_x_at) / RFU IGFBP7 (11715501_s_at) / Fold change /veh IGFBP7 (11715501_s_at) / RFU REEP3 (11722064_at) / Fold change /veh REEP3 (11722064_at) / RFU IGLL1 (11728026_x_at) / Fold change /veh IGLL1 (11728026_x_at): dose or concentration left out as unconfirmed
Details: MV-4-11 cells, 48 hours

## Nc1ncn([C@@H]2O[C@H](CO)[C@@H](O)[C@H]2O)c(=O)n1 [azacitidine]
  Fold change /veh IRGQ (11745062_a_at): 1.17
